# Experimental data from patent US9034876B2, “Treatment of chronic inflammation with a 1,2,4-triazolo [1,5a] pyridine derivative” (Cephalon, Inc., priority 2010, dated 2015).
# Where two headings read alike, the source gives them in different places.
# Legend:
# [1] = tested on: JAK2 in HEL92 cells (phosphorylation of STAT5); test: Inhibition of STAT5 phosphorylation in HEL92 cells (western blot); assay type: cell-based; details: 1 hour, serum-free media
# [2] = CAIA model, total body mass; assay type: in vivo, female DBA/1 mice; details: all doses
# Protocol: FIG. 3E: Depicts the effect of treatment on total body mass in a CAIA model
# Acclimated mice were randomized, pre-bled and measured for baseline inflammation before any studies were initiated. On day 0, DBA/1 female mice were injected i.v. with […] of a saline solution containing 1.5 mg of a 10 mg/ml cocktail of arthritogenic monoclonal antibodies directed against different epitopes of collagen type II (Chondrex, Redmond, Wash.) suspended in saline. On day 3, mice were injected with 100 μl of 50 μg of E. coli 0111:B4 LPS (0.5 mg/ml stock) (Chondrex, Redmond, Wash.) i.p. and provided with gel food during recovery. Two days post-LPS treatment monitoring of arthritic paws began; peak arthritis usually occurred 2-3 days following LPS treatment. […] Arthritis clinical score tables can be found described elsewhere. […] All samples were kept at −80° C. until ready to assay. At about 4 weeks, mice were harvested for spleen, serum and arthritic paws for STAT and cytokine quantitation and histological analysis. […]
# Src kinase = Src kinase (Homo sapiens, UniProt P12931); test: Kinase profiling panel, Src; assay type: binding; details: 1 μM
# Src kinase, sequence (P12931 whole entry): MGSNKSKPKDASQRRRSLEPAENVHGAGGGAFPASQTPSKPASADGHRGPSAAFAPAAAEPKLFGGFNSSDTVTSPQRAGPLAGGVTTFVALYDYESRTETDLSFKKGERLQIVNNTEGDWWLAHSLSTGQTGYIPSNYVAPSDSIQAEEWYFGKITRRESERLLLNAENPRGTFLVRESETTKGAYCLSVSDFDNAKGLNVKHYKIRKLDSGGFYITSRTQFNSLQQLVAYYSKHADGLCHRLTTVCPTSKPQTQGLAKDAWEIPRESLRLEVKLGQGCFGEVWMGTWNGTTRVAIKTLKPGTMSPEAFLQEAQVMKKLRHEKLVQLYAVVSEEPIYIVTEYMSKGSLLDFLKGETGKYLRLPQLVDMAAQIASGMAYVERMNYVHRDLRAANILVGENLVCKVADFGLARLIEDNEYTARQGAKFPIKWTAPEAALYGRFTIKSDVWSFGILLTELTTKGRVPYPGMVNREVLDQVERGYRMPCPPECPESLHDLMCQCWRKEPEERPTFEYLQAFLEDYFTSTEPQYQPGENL
# Protocol: (§1) The ability of Compound A to inhibit other members of the kinome was also assessed using binding assays for a panel of 402 kinases [25].
# human TYK2 = human TYK2 (Homo sapiens, UniProt P29597); test: TYK2 kinase enzyme assay, TRF detection; assay type: biochemical; details: relative to JAK2
# human TYK2, sequence (P29597 whole entry): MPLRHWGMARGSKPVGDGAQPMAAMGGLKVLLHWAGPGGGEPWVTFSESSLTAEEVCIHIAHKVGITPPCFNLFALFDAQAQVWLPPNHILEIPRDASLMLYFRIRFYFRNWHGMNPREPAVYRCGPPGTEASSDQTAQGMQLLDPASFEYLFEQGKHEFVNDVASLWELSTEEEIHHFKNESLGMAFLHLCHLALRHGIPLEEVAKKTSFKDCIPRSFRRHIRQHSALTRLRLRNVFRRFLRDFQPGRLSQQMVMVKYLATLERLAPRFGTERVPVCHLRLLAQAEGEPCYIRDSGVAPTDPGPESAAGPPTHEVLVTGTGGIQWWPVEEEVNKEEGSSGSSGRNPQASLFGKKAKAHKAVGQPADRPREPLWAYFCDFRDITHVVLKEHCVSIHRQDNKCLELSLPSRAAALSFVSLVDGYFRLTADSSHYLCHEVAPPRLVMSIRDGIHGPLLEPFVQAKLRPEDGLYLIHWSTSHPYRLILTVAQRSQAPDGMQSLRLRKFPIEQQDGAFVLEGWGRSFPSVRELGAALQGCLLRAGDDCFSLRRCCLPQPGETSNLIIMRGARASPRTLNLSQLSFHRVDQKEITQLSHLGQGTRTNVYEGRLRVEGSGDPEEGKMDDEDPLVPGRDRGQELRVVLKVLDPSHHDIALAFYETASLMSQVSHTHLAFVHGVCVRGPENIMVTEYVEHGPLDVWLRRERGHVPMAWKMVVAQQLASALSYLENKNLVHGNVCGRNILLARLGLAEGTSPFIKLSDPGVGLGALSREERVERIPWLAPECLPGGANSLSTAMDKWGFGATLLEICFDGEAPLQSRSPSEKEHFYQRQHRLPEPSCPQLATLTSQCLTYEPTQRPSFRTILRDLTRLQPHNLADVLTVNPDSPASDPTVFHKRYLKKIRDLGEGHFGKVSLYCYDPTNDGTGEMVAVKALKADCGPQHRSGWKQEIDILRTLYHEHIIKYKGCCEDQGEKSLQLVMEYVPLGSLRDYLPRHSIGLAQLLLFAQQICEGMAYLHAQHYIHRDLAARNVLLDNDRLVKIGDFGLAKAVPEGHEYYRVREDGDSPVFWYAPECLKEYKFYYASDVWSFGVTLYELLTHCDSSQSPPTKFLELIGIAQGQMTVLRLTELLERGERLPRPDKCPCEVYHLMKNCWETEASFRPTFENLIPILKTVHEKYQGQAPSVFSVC
# Protocol: The kinase activity of baculovirus-expressed human JAK kinases (JAK1, JAK2, JAK3 or TYK2) was measured using the time-resolved fluorescence (TRF) detection system as described elsewhere [17]. Each 96-well Costar high binding plate (Corning, Corning, N.Y.) was coated with 100 μl/well of 10 μg/ml neutravidin (Pierce Biotechnology, Rockford, Ill.) in TBS at 37° C. for 2 h, followed by 100 μl/well of 1 μg/ml 15-mer peptide substrate (biotinyl-amino-hexanoyl-[sequence]-amide, Infinity Biotech Research and Resource, Aston, Pa.) at 37° C. for 1 h. The kinase assay mixture (total volume=100 μl/well) consisting of 20 mM HEPES (pH 7.2), ATP (Km level for each kinase), 1 mM MnCl2, 0.1% BSA, and test Compound (diluted in DMSO; 2.5% DMSO final in assay) was added to the assay plate. The concentrations of ATP used were as follows: 0.2 μM ATP for JAK1, JAK2 and TYK2; 0.1 μM ATP for JAK3. Enzyme was added and the reaction was allowed to proceed for 20 min at RT. […] Plates were agitated for 10 min and the fluorescence of the resulting solution measured using the PerkinElmer EnVision® 2102 or 2104 multi-label plate reader. IC50 values were determined using the 4-parameter logistic model in XLFit® 4 (IDBS, Ltd., Guildford, UK).
# pSTAT3 = test: Activity against pSTAT3 (another experiment)
# [3] = tested on: collagen-antibody-induced arthritis (CAIA); test: CAIA model, joint histopathology scores; assay type: in vivo, female DBA/1 mice; details: compared to vehicle controls
# Protocol: Tissues were also stained with Safranin-O to evaluate matrix degeneration. Five representative mice from each group were sent for histological analysis and graded according to a scoring method described herein. The data in the figures represent mean±SEM, all statistics were performed using Prism® software and 2-way ANOVA analysis. H&E and Safranin-O stained paraffin wax embedded carpus and tarsus sections were scored by a board certified, independent pathologist for the criteria described in the materials and methods. Tabulated data represent mean±SD (standard deviation) values for the tarsus only. Statistics were performed using 2-way ANOVA analysis, *p<0.05; **p<0.01; ***p<0.001, N=5 mice per group tested. At the end of each experiment, front and hind paws (including carpus and tarsus) were removed from the body of the animal for histological analysis. Skin from the ends of the digits was removed and the metatarsal region skin perforated using surgical scissors to allow full decalcification. […] After 7-10 days of decalcification, samples were washed for 2 hours in distilled water and stored in 70% ethanol at 4° C. until ready to be processed. […] A total of five mice from each group were analyzed via histopathology, 10× representative images are shown for each group tested.
# phospho-STAT3 = test: CAIA model, paw phospho-STAT3 (Luminex bead assay); assay type: in vivo, female DBA/1 mice; details: for reduction in paw pSTAT3 compared with Dex: within 24 hours of treatment (day 6-7); for phospho-STAT3 levels in the paw: 55 mg/kg
# Protocol: DBA/1 female mice were injected i.v. with purified anti-collagen type II antibodies, then given 25 μg of LPS i.p. three days later to induce arthritis by day 5. Mice that met the arthritis criteria score of 1 per paw were entered into the study. Compound A was provided orally, b.i.d., for all doses tested; Dex was provided at 1.5 mg/kg three times a week, i.p.; and vehicle (PEG400+1% DMSO) was provided orally.
# The graphed data was generated using Luminex® bead kits, concentration in units per ml per 3 mg of total protein as determined by the BSA assay. The graphed data represents mean±SEM, statistics were performed using 2-way ANOVA analysis.
# To investigate the effect of Compound A on levels of phosphorylated STATs and cytokines in the paws of treated mice, a method was developed whereby synovial fluid and cellular joint extracts could be obtained from the paws and ankles of diseased animals for analysis using multiplex bead arrays [32]. […] Consequently, multiplex analysis was used as the primary method of measuring phosphorylated STATs for all experiments described herein.
# (§2) Briefly, the front (including carpus) and back (including tarsus) right paws were collected and frozen in dry-ice cooled isopentane and stored at −80° C. until use. The paws were cut to 2 mm×2 mm segments and kept on dry-ice in round bottom polypropylene tubes. Seven hundred microliters tissue extraction buffer containing protease inhibitor cocktail (Calbiochem, San Diego, Calif.) and Halt phosphatase inhibitor cocktail (Thermo Scientific, Rockford, Ill.) or Roche phosphatase inhibitor cocktail (Roche, Indianapolis, Ind.) in tissue extraction reagent I (Invitrogen, Carlesbad, Calif.) were added to each sample. Samples were homogenized frozen using a PT 10-35 Polytron homogenizer. After homogenization, samples were centrifuged at 4° C. for 2000×g for 10 minutes and supernatants re-centrifuged at 4° C. at maximum speed, 14,000×g, for 15 minutes. Supernatants were carefully removed to avoid picking up the top layer of lipids/adipose debris. Protein concentration was measured using a BCA protein assay (Pierce, Rockford, Ill.) and adjusted to 3 mg/ml. A minimum of 25 μl of this extraction was used in the above described protocol using the mouse cytokine 10-plex bead kit (Invitrogen, Carlsbad, Calif.) or phosphorylated STAT1, 3, 5a/b, 3-plex kit (Invitrogen, Carlsbad, Calif.).
# [4] = tested on: JAK2 (STAT5/pSTAT5 in HEL92 tumor extracts); test: In vivo pharmacodynamic assay, HEL92 tumor extracts; design: species or system mice; details: 55 mg/kg p.o., 2 hours
# Text: Levels of STAT5 and pSTAT5 were quantitated via western blot. Each lane represents an individual sample.
# panel of 402 kinases = test: Kinome binding assays, selectivity panel; details: test concentration 1 μM
# EGFR = EGFR (Homo sapiens, UniProt P00533); test: Kinase profiling panel, EGFR; assay type: binding; details: 1 μM
# EGFR, sequence (P00533 25-1210, species assumed): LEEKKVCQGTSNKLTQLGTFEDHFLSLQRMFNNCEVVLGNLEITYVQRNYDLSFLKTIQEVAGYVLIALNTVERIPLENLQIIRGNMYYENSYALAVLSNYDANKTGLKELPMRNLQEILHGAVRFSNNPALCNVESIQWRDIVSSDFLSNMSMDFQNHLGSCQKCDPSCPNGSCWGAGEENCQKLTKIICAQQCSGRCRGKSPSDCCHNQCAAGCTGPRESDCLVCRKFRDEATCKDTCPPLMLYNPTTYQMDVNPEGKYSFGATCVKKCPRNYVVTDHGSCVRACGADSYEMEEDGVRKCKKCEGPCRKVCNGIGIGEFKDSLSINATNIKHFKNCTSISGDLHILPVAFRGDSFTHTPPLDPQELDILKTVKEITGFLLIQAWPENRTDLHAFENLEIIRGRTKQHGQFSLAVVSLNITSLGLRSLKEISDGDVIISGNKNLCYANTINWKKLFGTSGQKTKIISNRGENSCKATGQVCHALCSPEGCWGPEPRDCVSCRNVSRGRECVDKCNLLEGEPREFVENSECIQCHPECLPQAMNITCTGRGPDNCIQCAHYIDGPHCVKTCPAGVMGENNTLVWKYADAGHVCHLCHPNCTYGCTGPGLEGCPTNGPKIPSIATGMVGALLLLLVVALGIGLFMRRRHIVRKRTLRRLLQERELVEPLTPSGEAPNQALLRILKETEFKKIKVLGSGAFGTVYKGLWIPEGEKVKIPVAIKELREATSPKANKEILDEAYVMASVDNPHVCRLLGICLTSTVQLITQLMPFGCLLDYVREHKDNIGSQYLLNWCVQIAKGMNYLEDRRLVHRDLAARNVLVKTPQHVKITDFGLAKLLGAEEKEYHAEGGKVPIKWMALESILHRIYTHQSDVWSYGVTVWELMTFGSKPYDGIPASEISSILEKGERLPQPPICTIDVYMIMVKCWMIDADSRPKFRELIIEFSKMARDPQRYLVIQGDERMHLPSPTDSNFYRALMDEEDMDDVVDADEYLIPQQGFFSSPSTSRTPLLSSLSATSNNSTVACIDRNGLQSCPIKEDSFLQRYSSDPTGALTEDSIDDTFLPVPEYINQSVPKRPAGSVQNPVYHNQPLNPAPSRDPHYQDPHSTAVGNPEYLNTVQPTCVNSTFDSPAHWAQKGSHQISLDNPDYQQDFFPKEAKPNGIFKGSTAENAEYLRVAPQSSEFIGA
# Protocol: as §1
# [5] = tested on: pro-inflammatory cytokines in paw extracts; test: CAIA model, paw cytokines (Luminex bead assay); assay type: in vivo, female DBA/1 mice
# Protocol: DBA/1 female mice were injected i.v. with purified anti-collagen type II antibodies, then given 25 μg of LPS i.p. three days later to induce arthritis by day 5. Mice that met the arthritis criteria score of 1 per paw were entered into the study.
# The cytokines were measured using known procedures [32].
# as §2
# [6] = Compound quantification (PK) in plasma, paw and spleen of CAIA mice; assay type: in vivo; details: DBA/1, mouse, oral, day 20, mean±SEM, N=3; for concentration at 2 h: 2 hrs post-administration; for concentration at 6 h: 6 hrs post-administration
# Protocol: FIG. 2B: Depicts the results of a PK (pharmacokinetic) study of Compound A, 55 mg/kg, 30 mg/kg and 10 mg/kg, p.o., s.i.d. (once daily), in the plasma, paw and spleen of treated mice, N=3 mice per group tested. The data shown in the figure represents the mean±SEM (standard error of the mean).
# While the level of Compound A in the target tissue, i.e., the paw, was relatively low, the levels of Compound A were relatively constant between the two time points for the 55 mg/kg treatment group. […] The data (mean±SEM, N=3) represented in FIG. 2B is tabulated below:
# Plasma and protein extraction from paw and spleen samples were submitted for quantitative analysis to determine the respective compound concentrations. Blood samples were collected into heparinized tubes and placed on wet ice until centrifuged (16,000×g, 5 minutes) to separate the plasma. Supernatant was collected and stored at −20° C. pending analysis. At the time of analysis, two volumes of cold acetonitrile containing an internal standard (alprenolol) were added to each sample which were then vortexed and centrifuged. The supernatants were removed, placed into an auto-sampler vial and the amount of compound present in the samples was analyzed by liquid chromatograph/mass spectrometry (LC-MS-MS). The concentration of compound in the samples was quantified against a mouse plasma standard curve made via serial dilution in a concentration range from 5 to 20,000 ng/mL. Samples containing concentrations greater than 10% above the top of the standard curve were diluted 1:10 with acetonitrile. The limit of detection for plasma, paw and spleen were <10 ng/ml.
# [7] = paw, 10 mg/kg p.o., read-out: concentration in paw
# [8] = paw, 30 mg/kg p.o., read-out: concentration in paw
# [9] = paw, 55 mg/kg p.o., read-out: concentration in paw
# [10] = plasma, 10 mg/kg p.o., read-out: concentration in plasma
# [11] = plasma, 30 mg/kg p.o., read-out: concentration in plasma
# [12] = plasma, 55 mg/kg p.o., read-out: concentration in plasma
# [13] = spleen, 10 mg/kg p.o., read-out: concentration in spleen
# [14] = spleen, 30 mg/kg p.o., read-out: concentration in spleen
# [15] = spleen, 55 mg/kg p.o., read-out: concentration in spleen
smiles,measurement,setting,value
"CN1CCN(c2cccc(Nc3nc4c(-c5ccc(S(C)(=O)=O)cc5)cccn4n3)c2)CC1 [Compound A, [8-(4-Methanesulfonyl-phenyl)-[1,2,4]triazolo[1,5-a]pyridin-2-yl]-[3-(4-methyl-piperazin-1-yl)-phenyl]-amine]","inhibition of JAK2, phosphorylation of STAT5",[1],shown to inhibit JAK2 in HEL92 cells
same,total body mass,[2],not significantly different from that of vehicle-treated animals
same,activity against Src in profiling panel,Src kinase,lacked activity
same,selectivity against TYK2,human TYK2,> 800 fold
same,activity against pSTAT3,pSTAT3,exhibited some activity against pSTAT3
same,"histopathology parameters (matrix erosions, subchondral osteolysis, osteoproliferation, synovial proliferation, pannus formation, degree of inflammation)",[3],significantly decrease several parameters
same,reduction in paw pSTAT3 compared with Dex,"phospho-STAT3; 30 mg/kg b.i.d., p<0.01 vs vehicle",significantly greater than that of Dex
same,reduction in paw pSTAT3 compared with Dex,"phospho-STAT3; 55 mg/kg b.i.d., p<0.001 vs vehicle",significantly greater than that of Dex
same,phospho-STAT3 levels in the paw,phospho-STAT3; 2 hours after administration,nearly abolished
same,phospho-STAT3 levels in the paw,phospho-STAT3; 6 hours post-administration,only slowly began to recover
same,"paw pSTAT3 expression, remainder of the experiment",phospho-STAT3; b.i.d. treatment,reduced pSTAT3 expression to the lower limits of the assay
same,inhibition of JAK2 in vivo (pSTAT5/STAT5),[4],inhibit JAK2 in vivo
same,share of the panel inhibited by >90%,panel of 402 kinases; 402 kinases,9%
same,share of the panel inhibited by >99%,panel of 402 kinases; 402 kinases,1%
same,selectivity score S(90)402,panel of 402 kinases; score of Karaman et al,0.09
same,selectivity score S(99)402,panel of 402 kinases; score of Karaman et al,0.01
same,activity against EGFR in profiling panel,EGFR,lacked activity
same,paw IL-6 concentration,"[5]; CAIA experiment, 4 hours post dosing, p<0.05",reduction in paw IL-6
same,level of pro-inflammatory cytokines in paw extracts,"[5]; CAIA, 55 mg/kg",significantly reduced the level of several of the cytokines
same,"cytokine suppression over the study (IL-1β, IL-6, TNFα, IL-12)","[5]; CAIA, 55 mg/kg, p<0.01 vs vehicle",lowered and sustained cytokine suppression for the remainder of the study
same,level of pro-inflammatory cytokines in paw extracts,"[5]; CAIA, 100 mg/kg",significantly reduced the level of several of the cytokines
same,dose dependence of cytokine reduction in paw extracts,"[5]; CAIA, 30, 55 and 100 mg/kg, especially GM-CSF, IL-12, IL-2, IL-4",Dose-dependent reductions were observed for all cytokines tested
same,paw cytokine expression compared with Dex group,"[5]; CAIA, several of the cytokines tested, p<0.05 vs vehicle",significantly decreased cytokine expression below the levels observed in the Dex treatment group
same,concentration at 2 h,[6]; [7],214 ± 12.4 ng/mL
same,concentration at 6 h,[6]; [7],172 ± 48.7 ng/mL
same,concentration at 2 h,[6]; [8],508 ± 213 ng/mL
same,concentration at 6 h,[6]; [8],376 ± 84.7 ng/mL
same,concentration at 2 h,[6]; [9],660 ± 81.1 ng/mL
same,concentration at 6 h,[6]; [9],472 ± 74.3 ng/mL
same,concentration at 2 h,[6]; [10],1160 ± 48.1 ng/mL
same,concentration at 6 h,[6]; [10],433 ± 56.7 ng/mL
same,concentration at 2 h,[6]; [11],2040 ± 693 ng/mL
same,concentration at 6 h,[6]; [11],1310 ± 258 ng/mL
same,concentration at 2 h,[6]; [12],3160 ± 456 ng/mL
same,concentration at 6 h,[6]; [12],1480 ± 138 ng/mL
same,concentration at 2 h,[6]; [13],673 ± 102 ng/mL
same,concentration at 6 h,[6]; [13],273 ± 50.4 ng/mL
same,concentration at 2 h,[6]; [14],1330 ± 113 ng/mL
same,concentration at 6 h,[6]; [14],1170 ± 395 ng/mL
same,concentration at 2 h,[6]; [15],3900 ± 427 ng/mL
same,concentration at 6 h,[6]; [15],2350 ± 433 ng/mL
